Activity calls are given as the source filed them. The calls are words filed in the database; no cut-off is given here.
Columns and labels:
[1] = biological target: T1, P2Y purinoceptor 14 (Homo sapiens) (UniProt Q15391); assay: Antagonist activity at human P2Y14R expressed in human HEK293 cells assessed as inhibition of cAMP level at 100 nM incubated for 30 mins by cAMP-glo assay relative to control; format: functional, cell-based
T1 sequence (whole entry): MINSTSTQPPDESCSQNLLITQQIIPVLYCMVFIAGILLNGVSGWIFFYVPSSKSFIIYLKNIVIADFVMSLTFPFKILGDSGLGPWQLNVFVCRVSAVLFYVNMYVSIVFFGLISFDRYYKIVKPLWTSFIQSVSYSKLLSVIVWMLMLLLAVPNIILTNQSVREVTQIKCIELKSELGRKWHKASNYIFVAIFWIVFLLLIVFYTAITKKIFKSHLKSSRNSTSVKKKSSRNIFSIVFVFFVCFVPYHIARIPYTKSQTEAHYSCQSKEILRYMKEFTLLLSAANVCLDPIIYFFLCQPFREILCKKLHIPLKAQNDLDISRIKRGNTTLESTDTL

P2Y purinoceptor 14 = biological target: T2, P2Y purinoceptor 14 (Homo sapiens, UniProt Q15391); assay: Antagonist activity at human P2Y14R expressed in human HEK293 cells assessed as inhibition of cAMP level incubated for 30 mins by cAMP-glo assay; format: functional, cell-based
T2 sequence (Q15391 whole entry): T1 sequence (whole entry)

BMDM [2] = assay: Antiinflammatory activity against MSU-induced C57BL/6 mouse BMDM cells assessed as inhibition of MSU-induced NLRP3 upregulation at 10 uM by measuring fluorescence intensity by immunofluorescence assay; format: functional, cell-based
BMDM [3] = assay: Antiinflammatory activity against MSU-induced C57BL/6 mouse BMDM cells assessed as inhibition of MSU-induced GSDMD-NT upregulation at 10 uM measured after 7 days by western blot analysis; format: functional, cell-based
Mus musculus [4] = assay: (§1) Anti-inflammatory activity against air pouch inflammation ICR mouse model assessed as decrease in MSU-induced pyroptosis of air pouch macrophages by measuring early cells at 10 uM injected subcutaneously after 24 hrs of MSU stimulation and measured after 24 hrs by caspase-1/PI staining based flow cytometry (reference value: 13.6 %); format: functional; parameters: scale not given: the % may be the effect or the level left; details: route sc
Mus musculus [5] = assay: as §1, with “viable” for “early”, “45.5” for “13.6”; format: functional; details: route sc
Mus musculus [6] = organism: Mus musculus; assay: Anti-arthritis activity against MSU-induced acute gout arthritis ICR mouse model assessed as reversal of GSDMD-NT upregulation in foot tissue at 10 uM by western blot analysis; format: functional, organism-based
Mus musculus [7] = organism: Mus musculus; assay: Anti-arthritis activity against MSU-induced acute gout arthritis ICR mouse model assessed as inhibition of NLRP3 inflammasome activation in foot tissue at 10 uM by microscopic analysis; format: functional, organism-based
BMDM [8] = assay: Antiinflammatory activity against MSU-induced C57BL/6 mouse BMDM cells assessed as inhibition of MSU-induced caspase-1 upregulation at 10 uM measured after 7 days by western blot analysis; format: functional, cell-based
Mus musculus [9] = organism: Mus musculus; assay: Anti-arthritis activity against MSU-induced acute gout arthritis ICR mouse model assessed as reduction in paw swelling at 10 uM measured at 6 to 24 hrs; format: functional, organism-based
Mus musculus [10] = assay: as §1, with “late” for “early”, “(Rvb =14.7” for “(reference value: 13.6”; format: functional; parameters: scale not given: the % may be the effect or the level left; details: route sc
BMDM [11] = assay: Antiinflammatory activity against MSU-induced C57BL/6 mouse BMDM cells assessed as inhibition of secretion of IL-1beta protein expression in supernatant at 10 uM measured after 7 days by western blot analysis; format: functional, cell-based
BMDM [12] = assay: Antiinflammatory activity against MSU-induced C57BL/6 mouse BMDM cells assessed as inhibition of MSU-induced NLRP3 upregulation at 10 uM measured after 7 days by western blot analysis; format: functional, cell-based
BMDM [13] = assay: Antiinflammatory activity against MSU-induced C57BL/6 mouse BMDM cells assessed as inhibition of MSU-induced ASC upregulation at 10 uM measured after 7 days by western blot analysis; format: functional, cell-based
BMDM [14] = assay: Antiinflammatory activity against MSU-induced C57BL/6 mouse BMDM cells assessed as inhibition of MSU-induced ASC upregulation at 10 uM by measuring fluorescence intensity by immunofluorescence assay; format: functional, cell-based
Mus musculus [15] = assay: as §1, with “necrotic” for “early”, “(Rvb =26.2” for “(reference value: 13.6”; format: functional; parameters: scale not given: the % may be the effect or the level left; details: route sc

inhibition ([1]; filed as antagonist) [%] | IC50 (P2Y purinoceptor 14) [nM] | Compound | also measured
44.1 | – | Cc1ccc2oc(-c3cccc(NC(=O)Cc4cccc(Cl)c4)c3)nc2c1 | –
83 | 12.2 | COc1ccccc1CC(=O)Nc1cccc(-c2nc3ccccc3o2)c1 | –
86 | 12.3 | CCCCOc1ccc(CC(=O)Nc2cccc(-c3nc4ccccc4o3)c2)cc1 | –
51 | – | O=C(Cc1ccc(Cl)cc1)Nc1ccc(-c2cc3ccccc3o2)cc1 | –
45 | – | O=C(Cc1cccs1)Nc1ccc(-c2cc3ccccc3o2)cc1 | –
68.6 | – | O=C(Cc1ccccc1Br)Nc1cccc(-c2nc3ccccc3o2)c1 | –
63.3 | – | O=C(Cc1ccc2c(c1)OCO2)Nc1cccc(-c2nc3ccccc3o2)c1 | –
47 | – | O=C(Cc1ccc2c(c1)OCO2)Nc1ccc(-c2cc3ccccc3o2)cc1 | –
68.6 | – | O=C(Cc1ccccc1Cl)Nc1cccc(-c2nc3cc(Cl)ccc3o2)c1 | –
42.1 | – | Cc1ccc2oc(-c3cccc(NC(=O)Cc4ccccc4Br)c3)nc2c1 | –
83 | 24.3 | COc1cccc(CC(=O)Nc2cccc(-c3nc4ccccc4o3)c2)c1 | –
70.5 | 25.4 | O=C(Cc1cccc(Br)c1)Nc1cccc(-c2nc3ccccc3o2)c1 | –
78.5 | 21.8 | Cc1cccc(CC(=O)Nc2cccc(-c3nc4ccccc4o3)c2)c1 | –
80 | 16.2 | O=C(Cc1cccc(OC(F)(F)F)c1)Nc1cccc(-c2nc3ccccc3o2)c1 | –
88 | 9.8 | O=C(Cc1ccc(OC(F)(F)F)cc1)Nc1cccc(-c2nc3cc(Cl)ccc3o2)c1 | –
46.7 | – | O=C(Cc1ccc2c(c1)OCO2)Nc1cccc(-c2nc3cc(Cl)ccc3o2)c1 | –
72 | 42.4 | Cc1ccc(CC(=O)Nc2ccc(-c3cc4ccccc4o3)cc2)cc1 | –
73.3 | 9.3 | Cc1ccccc1CC(=O)Nc1cccc(-c2nc3ccccc3o2)c1 | –
68 | – | CCCCOc1ccc(CC(=O)Nc2cccc(-c3nc4cc(Cl)ccc4o3)c2)cc1 | –
57 | – | O=C(Cc1ccc(C(F)(F)F)cc1)Nc1ccc(-c2cc3ccccc3o2)cc1 | –
57 | – | CC(C)(C)c1ccc(CC(=O)Nc2cccc(-c3nc4cc(Cl)ccc4o3)c2)cc1 | –
55.1 | – | Cc1ccc2oc(-c3cccc(NC(=O)Cc4ccc5c(c4)OCO5)c3)nc2c1 | –
75 | – | COc1ccc(CC(=O)Nc2ccc(-c3cc4ccccc4o3)cc2)cc1 | –
91 | 4.8 | O=C(Cc1ccc(OC(F)(F)F)cc1)Nc1cccc(-c2nc3ccccc3o2)c1 | –

The remaining lines, values behind:

Compound | inhibition ([1]; filed as antagonist) [%] | IC50 (P2Y purinoceptor 14) [nM] | also measured
Cc1ccc(CC(=O)Nc2cccc(-c3nc4ccccc4o3)c2)cc1 | 85.6 | 8.7 | –
Cc1cccc(CC(=O)Nc2cc(C)cc(-c3nc4cc(Cl)ccc4o3)c2)c1 | 86.9 | 9.7 | –
O=C(Cc1ccc(Br)cc1)Nc1ccc(-c2cc3ccccc3o2)cc1 | 47 | – | –
O=C(Cc1ccccc1Cl)Nc1cccc(-c2nc3ccccc3o2)c1 | 67.2 | – | –
CC(C)(C)c1ccc(CC(=O)Nc2ccc(-c3cc4ccccc4o3)cc2)cc1 | – | – | inhibition [1]: 33%
O=C(Cc1cccc(C(F)(F)F)c1)Nc1cccc(-c2nc3cc(Cl)ccc3o2)c1 | 79.7 | 27.5 | –
COc1ccccc1CC(=O)Nc1cccc(-c2nc3cc(Cl)ccc3o2)c1 | 81 | 17.1 | –
O=C(Cc1ccccc1Br)Nc1cccc(-c2nc3cc(Cl)ccc3o2)c1 | 72.6 | 32.9 | –
COc1cccc(CC(=O)Nc2cccc(-c3nc4cc(Cl)ccc4o3)c2)c1 | 82 | 23.8 | –
Cc1ccc(CC(=O)Nc2cccc(-c3nc4cc(Cl)ccc4o3)c2)cc1 | 84.6 | 6.7 | –
CCCCOc1ccc(CC(=O)Nc2ccc(-c3cc4ccccc4o3)cc2)cc1 | 61 | – | –
O=C(O)c1cc(-c2ccc(C3CCNCC3)cc2)c2ccc(-c3ccc(C(F)(F)F)cc3)cc2c1 [PPTN] | – | – | Activity (BMDM [2]): Active; Activity (BMDM [3]): Active; Activity (Mus musculus [4]): 15.4%; Activity (Mus musculus [5]): 60%; Activity (Mus musculus [6]): Active; Activity (Mus musculus [7]): Active; Activity (BMDM [8]): Active; Activity (Mus musculus [9]): Active; Activity (Mus musculus [10]): 6.81%; Activity (BMDM [11]): Active; Activity (BMDM [12]): Active; Activity (BMDM [13]): Active; Activity (BMDM [14]): Active; Activity (Mus musculus [15]): 18.8%
Cc1ccc2oc(-c3cccc(NC(=O)Cc4cccc(C(F)(F)F)c4)c3)nc2c1 | 62.2 | – | –
COc1ccc(CC(=O)Nc2cccc(-c3nc4ccccc4o3)c2)cc1 | 98 | 2 | Activity (BMDM [2]): Active; Activity (BMDM [3]): Active; Activity (Mus musculus [4]): 8.73%; Activity (Mus musculus [5]): 68.5%; Activity (Mus musculus [6]): Active; Activity (Mus musculus [7]): Active; Activity (BMDM [8]): Active; Activity (Mus musculus [9]): Active; Activity (Mus musculus [10]): 7.81%; Activity (BMDM [11]): Active; Activity (BMDM [12]): Active; Activity (BMDM [13]): Active; Activity (BMDM [14]): Active; Activity (Mus musculus [15]): 15%
O=C(Cc1ccc(C(F)(F)F)cc1)Nc1cccc(-c2nc3ccccc3o2)c1 | 83.6 | 11.5 | –
COc1ccc(CC(=O)Nc2cccc(-c3nc4cc(Cl)ccc4o3)c2)cc1 | 89 | 9.2 | –
Cc1ccc(CC(=O)Nc2cccc(-c3nc4cc(C)ccc4o3)c2)cc1 | 72.7 | 18.5 | –
O=C(CC1CCOCC1)Nc1ccc(-c2cc3ccccc3o2)cc1 | – | – | inhibition [1]: 36%
O=C(Cc1ccc(C(F)(F)F)cc1)Nc1cccc(-c2nc3cc(Cl)ccc3o2)c1 | 85.5 | 6.1 | –
O=C(Cc1cccc(OC(F)(F)F)c1)Nc1cccc(-c2nc3cc(Cl)ccc3o2)c1 | 84 | 12.6 | –
Cc1ccc2oc(-c3cccc(NC(=O)Cc4ccc(C(F)(F)F)cc4)c3)nc2c1 | 71.3 | 35.1 | –
O=C(Cc1cccc(Cl)c1)Nc1cccc(-c2nc3cc(Cl)ccc3o2)c1 | 74.6 | 13.4 | –
CC(C)(C)c1ccc(CC(=O)Nc2cccc(-c3nc4ccccc4o3)c2)cc1 | 68 | – | –
